Data from patent publication US7323541B2, “Polypeptide DNA thereof and use of the same” (Takeda Pharmaceutical Company Limited, priority 2001, dated 2008).
Positions count from the first letter of the chain named. Where no end group is shown, it is not given here.

Columns and labels:
Assay type in all cases: cell-based
[1] = target: T1, TGR23-1 expressing CHO cells (Homo sapiens, UniProt Q6W5P4); experiment: Intracellular Ca ion concentration increasing activity using FLIPR; conditions: variety of concentrations
T1 construct: the clones having the cDNA of TGR23-1, which is contained in pTB2173, were selected; expressed in transfected cells; host or cells: hamster CHO/dhfr- cells, vector pAKKO-111H (pAKKO-TGR23-1), clones No. 49 and No. 52
T1 sequence (Q6W5P4 1-371): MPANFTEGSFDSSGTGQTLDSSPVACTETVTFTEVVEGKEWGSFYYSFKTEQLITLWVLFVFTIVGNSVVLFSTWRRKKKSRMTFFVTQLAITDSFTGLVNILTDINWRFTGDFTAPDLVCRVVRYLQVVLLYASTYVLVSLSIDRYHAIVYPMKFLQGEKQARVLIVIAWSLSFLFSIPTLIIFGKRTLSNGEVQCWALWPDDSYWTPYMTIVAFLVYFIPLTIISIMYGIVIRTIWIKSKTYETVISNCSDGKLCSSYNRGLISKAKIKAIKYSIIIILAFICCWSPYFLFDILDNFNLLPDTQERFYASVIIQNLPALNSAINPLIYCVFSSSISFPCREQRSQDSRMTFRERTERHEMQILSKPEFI
Experimental: (§1) An enhancing activity of intracellular Ca^2+ release was assayed using FLIPR (Molecular Devices, Inc.). The CHO/TGR23-2 cells prepared in Example 1 and selected in Example 2 were plated on 96-well plate at 3×10^4 cells/well and cultured for 24 hours. A loading buffer was prepared by adding 1 vial of Fluo 3-AM to 10 ml of Hanks' solution (pH7.4) containing 2.5 mM Probenecid and 20 mM HEPES (hereafter, Hanks' solution (pH7.4) containing 2.5 mM Probenecid and 20 mM HEPES may be referred to as a washing buffer). The culture medium was discarded from the culture plate and 100 μl/well of the loading buffer were added to the cells. Then, the cells were incubated for 60 minutes in the incubator. After the loading buffer was removed from the culture plate and the cells were washed with the washing buffer, the plate was put in place of FLIPR. A sample was prepared by adding a sample buffer, which 2 mg/ml BSA and 1 mg/ml CHAPS were added to the washing buffer, to lyophilized product, stirring and treating by ultrasonication for 30 minutes, and transferred to 96-well sample plate. This sample plate was also put in place for assay. The enhancing activity of intracellular Ca^2+ release was measured as an increase of fluorescent intensity, which is raised by addition of the sample. Human TGR23-2 ligand (1-20) obtained in Example 17 was administered to TGR23-1 expressing CHO cells and TGR23-2 expressing CHO cells at a variety of concentrations according to the method described in Example 5, and the increasing activity of intracellular Ca ion concentration was determined using FLIPR. […] Rat TGR23-2 ligand (1-18) prepared by the method described in Example 19 and mouse TGR23-2 ligand (1-20) prepared by the method described in Example 20 were administered to TGR23-1 expressing CHO cells and TGR23-2 expressing CHO cells at a variety of concentrations according to the method described in Example 5, and the increasing activity of intracellular Ca ion concentration was determined using FLIPR.

[2] = target: T2, TGR23-2 expressing CHO cells (Homo sapiens, UniProt Q6W5P4, N107I/Q344R); experiment: as above; conditions: variety of concentrations
T2 construct: the clones having the cDNA of TGR23-2, which is contained in pTB2174, were selected; expressed in transfected cells; host or cells: hamster CHO/dhfr- cells, vector pAKKO-111H (pAKKO-TGR23-2)
T2 sequence (Q6W5P4 1-371 N107I/Q344R): T1 sequence (Q6W5P4 1-371) with N107I, Q344R
Experimental: as §1

[3] = target: T1, TGR23-1 expressing CHO cells; experiment: Enhancing activity of arachidonic acid metabolite release
[4] = target: T2, TGR23-2 expressing CHO cells; experiment: as above
Experimental: The CHO/TGR23-2 cells prepared in Example 1 and selected in Example 2 were plated on 24-well plate at 5×10^4 cells/well and cultured for 24 hours. After removing the medium, αMEM medium (pH7.4) supplemented with 0.5 μCi/ml [^3H] arachidonic acid, 10% dialyzed FBS, 20 mM HEPES and 0.5% BSA was added to the cells at 500 μl/well. Subsequently, the cells were incubated for 16 hours in the incubator. After the culture medium containing [^3H] arachidonic acid was discarded, 500 μl/well of αMEM medium (pH7.4) supplemented with 20 mM HEPES and 0.5% BSA were added, and the cells were incubated for 4 hours in the incubator. […] Three milliliters of liquid scintilator were added to the supernatant described above to measure the radioactivity. Based on this measured value, a calculation was made using the following formula, and the promoting activity of arachidonic acid metabolite release was represented by % of control. The activity of the sample-adding group was calculated using a control value configured in each plate. % of control=[…]
X: The radioactivity in the sample-adding group
C: The means of the radioactivity in 4 wells of control (no sample) […]

In the case of “SFRNGVGSGVKKTSFRRA [rat TGR23-2 ligand (1-18), Ser-Phe-Arg-Asn-Gly-Val-Gly-Ser-Gly-Val-Lys-Lys-Thr-Ser-Phe-Arg-Arg-Ala]”, the “increase of intracellular Ca ion concentration” value (from here on “increase”) [1] is reported as “clearly enhance an increase of intracellular Ca ion concentration”, the “increase” value [2] is reported as “clearly enhance an increase of intracellular Ca ion concentration” and the “enhancing activity of arachidonic acid metabolite release” value (from here on “enhancing activity”) [3] is reported as “enhance the arachidonic acid metabolite release”. The “enhancing activity” value [4] was “enhance the arachidonic acid metabolite release”.

In the case of “SFRNGVGTGMKKTSFQRAKS [human TGR23-2 ligand (1-20)]”, the “increase” value [1] is reported as “enhances an increase of intracellular Ca ion concentration”, the “increase” value [2] is reported as “enhances an increase of intracellular Ca ion concentration” and the “enhancing activity” value [3] is reported as “enhance the arachidonic acid metabolite release”. The “enhancing activity” value [4] was “enhance the arachidonic acid metabolite release”.
